Tests used:
[1] = Inhibition of HIF-1 (unknown origin) expressed in MH7A cells cotransfected with HRE and renilla luciferase assessed as reduction in luminescence signal preincubated for 1 hr under normoxic condition followed by 24 hrs incubation under hypoxic condition by dual luciferase reporter assay; settings: Homo sapiens
[2] = Cytotoxicity against human MH7A cells

SMILES	IC50 [1] [µM]	CC50 [2] [µM]
O=c1c2ccc(-c3ccccc3O)cc2ccn1CCc1ccccc1	0.91	> 50
COc1ccc(-c2ccc3c(=O)n(CCc4ccccc4)ccc3c2)cc1	2.18	> 50
COc1ccc(-c2ccc3c(=O)n(Cc4ccccc4F)ccc3c2)cc1	3.54	> 50
O=c1c2ccc(-c3cccc(O)c3)cc2ccn1CCc1ccccc1	7.39	> 50
O=c1c2ccc(-c3ccc(F)cc3)cc2ccn1CCc1ccccc1	6.21	> 50
COc1ccccc1-c1ccc2c(=O)n(Cc3ccccc3F)ccc2c1	6.73	> 50
COc1ccccc1-c1ccc2c(=O)n(CCc3ccccc3)ccc2c1	3.31	> 50
O=c1c2ccc(-c3ccoc3)cc2ccn1Cc1ccccc1	5.92	> 50
O=c1c2ccc(-c3ccc(O)cc3)cc2ccn1CCc1ccccc1	0.82	> 50
O=c1c2ccc(-c3ccoc3)cc2ccn1Cc1ccccc1F	1.46	> 50
COc1ccccc1-c1ccc(C(=O)NCCc2ccccc2F)nc1	4.57	> 50
